Data as given in US20240132484A1, “BROAD SPECTRUM ANTIVIRAL COMPOUNDS TARGETING THE SKI COMPLEX” (priority 2020, published 2024).
Values joined by “and” are separate entries in the source; they are usually repeats but may differ in a detail not shown here. Equal entries are not always repeated. Where two headings read alike, the source gives them in different places.

Tests used:
cells (nuclei count) = details: for Toxicity Data: Average, Mean: average of Exp 1-3 (SMW475, SMW477, SMW478), n 9; for Relative cell count to DMSO controls, Average 1 μM / Relative cell count to DMSO controls, Average 5 μM / Relative cell count to DMSO controls, Average 10 μM / Relative cell count to DMSO controls, Average 25 μM / Relative cell count to DMSO controls, Average 50 μM: toxicity data, 100=DMSO control; for Relative cell count to DMSO controls, Average (for correlation analysis): average value over the 5 tested concentrations (1 to 50 uM)
SARS2 = format: cell-based, SARS-CoV-2; details: for Infection Data: Percentage Infection Relative to Appropriate DMSO Control: avg background subtraction, replicate wells; for Infection Data: Average, Mean: average of Exp 1-3 (SMW475, SMW477, SMW478), n 9; for Percentage Inhibition Average 1 μM / Screening data (Relative infection to DMSO controls) Average 1 μM: SARS2, 1 μM; for Screening data (Relative infection to DMSO controls) Average 1 μM / Screening data (Relative infection to DMSO controls) Average 5 μM / Screening data (Relative infection to DMSO controls) Average 10 μM / Screening data (Relative infection to DMSO controls) Average 25 μM / Screening data (Relative infection to DMSO controls) Average 50 μM / Average (relative infection to DMSO over the 5 tested concentrations): 100=DMSO control; for Percentage Inhibition Average 5 μM / Screening data (Relative infection to DMSO controls) Average 5 μM: SARS2, 5 μM; for Percentage Inhibition Average 10 μM / Screening data (Relative infection to DMSO controls) Average 10 μM: SARS2, 10 μM; for Percentage Inhibition Average 25 μM / Screening data (Relative infection to DMSO controls) Average 25 μM: SARS2, 25 μM; for Percentage Inhibition Average 50 μM / Screening data (Relative infection to DMSO controls) Average 50 μM: SARS2, 50 μM; for Average (relative infection to DMSO over the 5 tested concentrations): SARS2, average over 1 to 50 uM

## Cc1csc(CN(CCN(C)C)Cc2ccco2)c1 [SILCS17]
Cells (nuclei count); 1 uM
  Toxicity Data: Average, Mean: 96.29%
Cells (nuclei count)
  Relative cell count to DMSO controls, Average 1 μM: 96.29
  Relative cell count to DMSO controls, Average 5 μM: 89.17
  Relative cell count to DMSO controls, Average 10 μM: 88.87
  Relative cell count to DMSO controls, Average 25 μM: 75.47
  Relative cell count to DMSO controls, Average 50 μM: 53.52
  Relative cell count to DMSO controls, Average (for correlation analysis): 80.66
Cells (nuclei count); 5 uM
  Toxicity Data: Average, Mean: 89.17%
Cells (nuclei count); 10 uM
  Toxicity Data: Average, Mean: 88.87%
Cells (nuclei count); 25 uM
  Toxicity Data: Average, Mean: 75.47%
Cells (nuclei count); 50 uM
  Toxicity Data: Average, Mean: 53.52%
SARS2; 1 uM, Exp 1 (SMW475)
  Infection Data: Percentage Infection Relative to Appropriate DMSO Control: 78.55% and 85.49% and 89.26%
SARS2; 1 uM, Exp 2 (SMW477)
  Infection Data: Percentage Infection Relative to Appropriate DMSO Control: 101.46% and 156.03% and 155.63%
SARS2; 1 uM, Exp 3 (SMW478)
  Infection Data: Percentage Infection Relative to Appropriate DMSO Control: 90.81% and 93.25% and 105.34%
SARS2; 1 uM
  Infection Data: Average, Mean: 106.20%
SARS2; 5 uM, Exp 1 (SMW475)
  Infection Data: Percentage Infection Relative to Appropriate DMSO Control: 86.61% and 84.44% and 77.45%
SARS2; 5 uM, Exp 2 (SMW477)
  Infection Data: Percentage Infection Relative to Appropriate DMSO Control: 142.87% and 172.05% and 157.06%
SARS2; 5 uM, Exp 3 (SMW478)
  Infection Data: Percentage Infection Relative to Appropriate DMSO Control: 97.85% and 101.86% and 101.30%
SARS2; 5 uM
  Infection Data: Average, Mean: 113.50%
SARS2; 10 uM, Exp 1 (SMW475)
  Infection Data: Percentage Infection Relative to Appropriate DMSO Control: 75.56% and 86.80% and 108.19%
SARS2; 10 uM, Exp 2 (SMW477)
  Infection Data: Percentage Infection Relative to Appropriate DMSO Control: 130.54% and 160.59% and 172.84%
SARS2; 10 uM, Exp 3 (SMW478)
  Infection Data: Percentage Infection Relative to Appropriate DMSO Control: 90.38% and 97.98% and 103.28%
SARS2; 10 uM
  Infection Data: Average, Mean: 114.02%
SARS2; 25 uM, Exp 1 (SMW475)
  Infection Data: Percentage Infection Relative to Appropriate DMSO Control: 41.54% and 68.32% and 68.68%
SARS2; 25 uM, Exp 2 (SMW477)
  Infection Data: Percentage Infection Relative to Appropriate DMSO Control: 38.35% and 67.19% and 82.12%
SARS2; 25 uM, Exp 3 (SMW478)
  Infection Data: Percentage Infection Relative to Appropriate DMSO Control: 68.44% and 109.27% and 278.92%
SARS2; 25 uM
  Infection Data: Average, Mean: 91.43%
SARS2; 50 uM, Exp 1 (SMW475)
  Infection Data: Percentage Infection Relative to Appropriate DMSO Control: 15.74% and 49.90% and 30.92%
SARS2; 50 uM, Exp 2 (SMW477)
  Infection Data: Percentage Infection Relative to Appropriate DMSO Control: 11.74% and 25.42% and 30.96%
SARS2; 50 uM, Exp 3 (SMW478)
  Infection Data: Percentage Infection Relative to Appropriate DMSO Control: 20.44% and 62.60% and 81.13%
SARS2; 50 uM
  Infection Data: Average, Mean: 36.54%
SARS2
  Percentage Inhibition Average 1 μM: −6.20%
  Screening data (Relative infection to DMSO controls) Average 1 μM: 106.20
  Percentage Inhibition Average 5 μM: −13.50%
  Screening data (Relative infection to DMSO controls) Average 5 μM: 113.50
  Percentage Inhibition Average 10 μM: −14.02%
  Screening data (Relative infection to DMSO controls) Average 10 μM: 114.02
  Percentage Inhibition Average 25 μM: 8.57%
  Screening data (Relative infection to DMSO controls) Average 25 μM: 91.43
  Percentage Inhibition Average 50 μM: 63.46%
  Screening data (Relative infection to DMSO controls) Average 50 μM: 36.54
  Average (relative infection to DMSO over the 5 tested concentrations): 92.34

## CN(C)CCN(Cc1ccsc1)Cc1cccc(-c2ccsc2)c1 [SILCS20]
Cells (nuclei count); 1 uM
  Toxicity Data: Average, Mean: 96.85%
Cells (nuclei count)
  Relative cell count to DMSO controls, Average 1 μM: 96.85
  Relative cell count to DMSO controls, Average 5 μM: 116.85
  Relative cell count to DMSO controls, Average 10 μM: 138.88
  Relative cell count to DMSO controls, Average 25 μM: 78.06
  Relative cell count to DMSO controls, Average 50 μM: 7.37
  Relative cell count to DMSO controls, Average (for correlation analysis): 87.60
Cells (nuclei count); 5 uM
  Toxicity Data: Average, Mean: 116.85%
Cells (nuclei count); 10 uM
  Toxicity Data: Average, Mean: 138.88%
Cells (nuclei count); 25 uM
  Toxicity Data: Average, Mean: 78.06%
Cells (nuclei count); 50 uM
  Toxicity Data: Average, Mean: 7.37%
SARS2; 1 uM, Exp 1 (SMW475)
  Infection Data: Percentage Infection Relative to Appropriate DMSO Control: 104.96% and 108.84% and 98.09%
SARS2; 1 uM, Exp 2 (SMW477)
  Infection Data: Percentage Infection Relative to Appropriate DMSO Control: 151.25% and 151.34% and 136.14%
SARS2; 1 uM, Exp 3 (SMW478)
  Infection Data: Percentage Infection Relative to Appropriate DMSO Control: 92.92% and 94.78% and 98.52%
SARS2; 1 uM
  Infection Data: Average, Mean: 115.20%
SARS2; 5 uM, Exp 1 (SMW475)
  Infection Data: Percentage Infection Relative to Appropriate DMSO Control: 71.77% and 48.90% and 69.38%
SARS2; 5 uM, Exp 2 (SMW477)
  Infection Data: Percentage Infection Relative to Appropriate DMSO Control: 133.79% and 116.24% and 114.33%
SARS2; 5 uM, Exp 3 (SMW478)
  Infection Data: Percentage Infection Relative to Appropriate DMSO Control: 62.84% and 53.65% and 64.98%
SARS2; 5 uM
  Infection Data: Average, Mean: 81.76%
SARS2; 10 uM, Exp 1 (SMW475)
  Infection Data: Percentage Infection Relative to Appropriate DMSO Control: 45.14% and 27.86% and 26.38%
SARS2; 10 uM, Exp 2 (SMW477)
  Infection Data: Percentage Infection Relative to Appropriate DMSO Control: 76.01% and 46.79% and 30.46%
SARS2; 10 uM, Exp 3 (SMW478)
  Infection Data: Percentage Infection Relative to Appropriate DMSO Control: 30.07% and 13.27% and 56.68%
SARS2; 10 uM
  Infection Data: Average, Mean: 39.18%
SARS2; 25 uM, Exp 1 (SMW475)
  Infection Data: Percentage Infection Relative to Appropriate DMSO Control: 13.25% and 8.47% and 6.46%
SARS2; 25 uM, Exp 2 (SMW477)
  Infection Data: Percentage Infection Relative to Appropriate DMSO Control: 9.75% and 7.72% and 7.01%
SARS2; 25 uM, Exp 3 (SMW478)
  Infection Data: Percentage Infection Relative to Appropriate DMSO Control: 6.76% and 9.52% and 8.68%
SARS2; 25 uM
  Infection Data: Average, Mean: 8.63%
SARS2; 50 uM, Exp 1 (SMW475)
  Infection Data: Percentage Infection Relative to Appropriate DMSO Control: −0.47% and 0.47% and 1.44%
SARS2; 50 uM, Exp 2 (SMW477)
  Infection Data: Percentage Infection Relative to Appropriate DMSO Control: −0.57% and −0.19% and −1.43%
SARS2; 50 uM, Exp 3 (SMW478)
  Infection Data: Percentage Infection Relative to Appropriate DMSO Control: 125.56% and 159.57% and 149.88%
SARS2; 50 uM
  Infection Data: Average, Mean: 48.15%
SARS2
  Percentage Inhibition Average 1 μM: −15.20%
  Screening data (Relative infection to DMSO controls) Average 1 μM: 115.20
  Percentage Inhibition Average 5 μM: 18.24%
  Screening data (Relative infection to DMSO controls) Average 5 μM: 81.76
  Percentage Inhibition Average 10 μM: 60.82%
  Screening data (Relative infection to DMSO controls) Average 10 μM: 39.18
  Percentage Inhibition Average 25 μM: 91.37%
  Screening data (Relative infection to DMSO controls) Average 25 μM: 8.63
  Percentage Inhibition Average 50 μM: 51.85%
  Screening data (Relative infection to DMSO controls) Average 50 μM: 48.15
  Average (relative infection to DMSO over the 5 tested concentrations): 58.58
